In PubChem BioAssay AID192 (DTP/NCI, 2004) one finds T/C data, which are given here for 24 compounds.

Where “and” joins values, the source holds several entries; their conditions need not be identical. Equal values may be shown once. Inconclusive results and toxic doses are left out.

The test system of this test is BDF1 mice, B16 melanoma ip, median survival T/C. Briefly: NCI In Vivo Anticancer Drug Screen. Data for tumor model B16 Melanoma (intraperitoneal) in B6D2F1 (BDF1) mice. Particulars: endpoint: median survival time, higher = longer survival. The method, boiled down:
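Mice with transplantable tumors; drug vs vehicle groups; endpoint survival or tumor size; value = T/C.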

[1] abbreviates: dose: 25.0 mg/kg/injection, schedule: Q01DX009 (ip), vehicle: Klucel (hydroxypropylcellulose) (HPC).
Where [2] appears, read: dose: 50.0 mg/kg/injection, schedule: Q01DX009 (ip), vehicle: Klucel (hydroxypropylcellulose) (HPC).
The mark [3] stands for this setting: dose: 100.0 mg/kg/injection, schedule: Q01DX009 (ip), vehicle: Klucel (hydroxypropylcellulose) (HPC).
[4] abbreviates: dose: 200.0 mg/kg/injection, schedule: Q01DX009 (ip), vehicle: Klucel (hydroxypropylcellulose) (HPC).
The mark [5] stands for this setting: dose: 100.0 mg/kg/injection, schedule: Q04DX003 (ip), vehicle: saline with Tween-80.
The mark [6] stands for this setting: dose: 200.0 mg/kg/injection, schedule: Q04DX003 (ip), vehicle: saline with Tween-80.
Where [7] appears, read: dose: 100.0 mg/kg/injection, schedule: Q04DX003 (ip), vehicle: Klucel (hydroxypropylcellulose) (HPC).
Setting [8] is: dose: 200.0 mg/kg/injection, schedule: Q04DX003 (ip), vehicle: Klucel (hydroxypropylcellulose) (HPC).
Setting [9] is: dose: 12.5 mg/kg/injection, schedule: Q01DX009 (ip), vehicle: Klucel (hydroxypropylcellulose) (HPC).
The mark [10] stands for this setting: dose: 3.12 mg/kg/injection, schedule: Q01DX009 (ip), vehicle: Klucel (hydroxypropylcellulose) (HPC).
The mark [11] stands for this setting: dose: 6.25 mg/kg/injection, schedule: Q01DX009 (ip), vehicle: Klucel (hydroxypropylcellulose) (HPC).
[12] abbreviates: dose: 100.0 mg/kg/injection, schedule: Q01DX009 (ip), vehicle: saline with Tween-80.
Where [13] appears, read: dose: 200.0 mg/kg/injection, schedule: Q01DX009 (ip), vehicle: saline with Tween-80.
Where [14] appears, read: dose: 6.25 mg/kg/injection, schedule: Q01DX009 (ip), vehicle: saline with Tween-80.
The mark [15] stands for this setting: dose: 25.0 mg/kg/injection, schedule: Q01DX009 (ip), vehicle: saline with Tween-80.

On to `Cn1c(CCCC(=O)O)nc2cc(N(CCCl)CCCl)ccc21`, for which the T/C was 115 % of control (dose: 1.0 mg/kg/injection, schedule: Q01DX009 (ip), vehicle: saline); 94 % of control (dose: 2.0 mg/kg/injection, schedule: Q01DX009 (ip), vehicle: saline); 157 % of control (dose: 2.5 mg/kg/injection, schedule: Q01DX009 (ip), vehicle: saline); 103 % of control (dose: 4.0 mg/kg/injection, schedule: Q01DX009 (ip), vehicle: saline); 152 % of control (dose: 5.0 mg/kg/injection, schedule: Q01DX009 (ip), vehicle: saline); 101 % of control (dose: 6.0 mg/kg/injection, schedule: Q01DX009 (ip), vehicle: saline). The T/C is, setting by setting: (dose: 8.0 mg/kg/injection, schedule: Q01DX009 (ip), vehicle: saline) 159 % of control; (dose: 10.0 mg/kg/injection, schedule: Q01DX009 (ip), vehicle: saline) 157 % of control and 186 % of control; (dose: 12.0 mg/kg/injection, schedule: Q01DX009 (ip), vehicle: saline) 115 % of control; (dose: 20.0 mg/kg/injection, schedule: Q01DX009 (ip), vehicle: saline) 89 % of control.

Take `Cc1nonc1-c1ccc2c(c1)OCO2`: the T/C is 98 % of control under setting [1], 93 % of control under setting [2], 91 % of control under setting [3] and 99 % of control under setting [4].

Take `OC(Cc1cnc2ccccc2n1)(C(F)(F)F)C(F)(F)F`: the T/C under setting [5] was 105 % of control; the T/C under setting [6] was 105 % of control; the T/C (dose: 400.0 mg/kg/injection, schedule: Q04DX003 (ip), vehicle: saline with Tween-80) is 102 % of control.

In the case of `O=C(Nc1ccc(NC2=NCCN2)cc1)c1cccc(C(=O)Nc2ccc(NC3=NCCN3)cc2)c1`, the T/C is 105 % of control (dose: 7.5 mg/kg/injection, schedule: Q01DX009 (ip), vehicle: saline with Tween-80); 100 % of control (dose: 7.5 mg/kg/injection, schedule: Q04DX003 (ip), vehicle: saline with Tween-80); 92 % of control (dose: 15.0 mg/kg/injection, schedule: Q01DX009 (ip), vehicle: saline with Tween-80); 88 % of control (dose: 15.0 mg/kg/injection, schedule: Q04DX003 (ip), vehicle: saline with Tween-80); 100 % of control (dose: 30.0 mg/kg/injection, schedule: Q04DX003 (ip), vehicle: saline with Tween-80).

For `Cc1cc(OC(=O)Nc2cccc(Cl)c2)ccc1[N+](=O)[O-]`, the T/C reads like this: under setting [2], 93 % of control; (dose: 50.0 mg/kg/injection, schedule: Q04DX003 (ip), vehicle: Klucel (hydroxypropylcellulose) (HPC)) 100 % of control; under setting [3], 86 % of control; under setting [7], 100 % of control; under setting [8], 107 % of control.

With `O=C(/C(=C\c1ccccc1)CBr)c1ccccc1`, the T/C runs as follows: (dose: 0.12 mg/kg/injection, schedule: Q01DX009 (ip), vehicle: Klucel (hydroxypropylcellulose) (HPC)) 101 % of control; (dose: 0.25 mg/kg/injection, schedule: Q01DX009 (ip), vehicle: Klucel (hydroxypropylcellulose) (HPC)) 88 % of control; (dose: 0.5 mg/kg/injection, schedule: Q01DX009 (ip), vehicle: Klucel (hydroxypropylcellulose) (HPC)) 88 % of control.

Regarding `CC12C=CC(CC1)C2OC(=O)c1ccccc1C(=O)O` (centres undefined), the T/C by setting is: under setting [9], 108 % of control; under setting [2], 94 % of control; under setting [3], 100 % of control; under setting [4], 94 % of control.

For `Cc1cccc(C)c1NC(=O)C(Cl)c1ccccc1` (centres undefined), the T/C is, setting by setting: under setting [3], 103 % of control; under setting [4], 93 % of control; (dose: 400.0 mg/kg/injection, schedule: Q01DX009 (ip), vehicle: Klucel (hydroxypropylcellulose) (HPC)) 100 % of control.

In the case of `N#CC(C#N)=C/C=C/c1cccc([N+](=O)[O-])c1`, the T/C under setting [10] was 110 % of control, the T/C under setting [11] was 104 % of control and the T/C under setting [9] is 115 % of control.

With `CCN(CC)CC(C)(C)CO`, the T/C (dose: 50.0 mg/kg/injection, schedule: Q01DX009 (ip), vehicle: saline with Tween-80) is 99 % of control; the T/C under setting [12] is 101 % of control; the T/C under setting [13] was 89 % of control.

As to `Cc1cc(Cl)ccc1NC(=O)c1ccccc1C(=O)O`, the T/C reads like this: under setting [3], 96 % of control; under setting [7], 93 % of control; under setting [4], 100 % of control; under setting [8], 96 % of control; (dose: 400.0 mg/kg/injection, schedule: Q04DX003 (ip), vehicle: Klucel (hydroxypropylcellulose) (HPC)) 106 % of control.

With `O=S1(=O)CC2(N3CCOCC3)CCCCC21` (centres undefined), the T/C is, setting by setting: under setting [12], 102 % of control; under setting [13], 104 % of control.

For the compound `OCC1OC(n2cnc3c(=S)nc[nH]c32)CC1O` (centres undefined), the T/C reads like this: under setting [2], 97 % of control; under setting [3], 92 % of control.

For the compound `CCOC(=O)C1=C(O)c2c(sc(C)c2C)N(S(=O)(=O)c2ccc(C)cc2)CC1`, the T/C runs as follows: (dose: 12.5 mg/kg/injection, schedule: Q04DX003 (ip), vehicle: saline with Tween-80) 116 % of control; (dose: 25.0 mg/kg/injection, schedule: Q04DX003 (ip), vehicle: saline with Tween-80) 113 % of control; (dose: 50.0 mg/kg/injection, schedule: Q04DX003 (ip), vehicle: saline with Tween-80) 111 % of control; under setting [5], 111 % of control; under setting [6], 108 % of control.

As to `OC1CCCC2CCC[N-]C12.OC1CCCC2CCC[N-]C12.[Mn+2]` (centres undefined), the T/C is, setting by setting: under setting [9], 109 % of control; under setting [1], 95 % of control; under setting [2], 105 % of control; under setting [3], 94 % of control; under setting [4], 98 % of control.

Turning to `CS(=O)(=O)OCCN1CCC2(CC1)SSC1(CCN(CCOS(C)(=O)=O)CC1)S2`, the T/C runs as follows: (dose: 3.13 mg/kg/injection, schedule: Q01DX009 (ip), vehicle: saline) 106 % of control; (dose: 6.25 mg/kg/injection, schedule: Q01DX009 (ip), vehicle: saline) 106 % of control.

As to `N/N=C(\N)c1nn(C2OC(CO)C(O)C2O)c2ncnc(N)c12` (centres undefined), the T/C is 91 % of control (dose: 40.0 mg/kg/injection, schedule: Q01DX005 (ip), vehicle: saline); 95 % of control (dose: 80.0 mg/kg/injection, schedule: Q01DX005 (ip), vehicle: saline); 100 % of control (dose: 160.0 mg/kg/injection, schedule: Q01DX005 (ip), vehicle: saline).

As to `C[CH2][Pb]([Br])([CH2]C)[CH2]C`, the T/C is 91 % of control (dose: 3.12 mg/kg/injection, schedule: Q01DX009 (ip), vehicle: saline with Tween-80); 94 % of control under setting [14]; 89 % of control (dose: 12.5 mg/kg/injection, schedule: Q01DX009 (ip), vehicle: saline with Tween-80); 94 % of control under setting [15].

Take `c1ccc(COCCNCCOCc2ccccc2)cc1`: the T/C under setting [9] was 100 % of control, the T/C under setting [1] was 90 % of control and the T/C under setting [2] was 103 % of control.

As to `CC(=O)Nc1ccc(N=Nc2c(O)c(S(=O)(=O)O)cc3cc(S(=O)(=O)O)ccc23)cc1`, the T/C under setting [13] is 100 % of control.

For the compound `O=C(Nc1ccc(Cl)c(Cl)c1)Nc1c(Oc2ccc(Cl)c(Cl)c2)ccc(Cl)c1S(=O)(=O)O`, the T/C under setting [10] is 119 % of control; the T/C under setting [11] was 105 % of control; the T/C under setting [14] is 122 % of control; the T/C under setting [9] was 105 % of control; the T/C under setting [1] was 116 % of control; the T/C under setting [15] is 122 % of control. Also, the T/C runs as follows: under setting [2], 112 % of control; under setting [3], 123 % of control.

As for `CN1CCN(c2ccc(Cl)cc2)CC1`, the T/C was 100 % of control under setting [1] and 100 % of control under setting [2].

For `Cc1cc(Cl)ccc1OCC(=O)Nc1nc(N)nc(N)n1`, the T/C is 88 % of control (dose: 12.5 mg/kg/injection, schedule: Q04DX009 (ip), vehicle: Klucel (hydroxypropylcellulose) (HPC)); 92 % of control (dose: 25.0 mg/kg/injection, schedule: Q04DX009 (ip), vehicle: Klucel (hydroxypropylcellulose) (HPC)); 87 % of control (dose: 50.0 mg/kg/injection, schedule: Q04DX009 (ip), vehicle: Klucel (hydroxypropylcellulose) (HPC)).

On to `O=C(O)CCNCCO`, for which the T/C (dose: 400.0 mg/kg/injection, schedule: Q01DX009 (ip), vehicle: saline) was 97 % of control.
